According to paper PMC9597602, “Metal Complexes as Antifungals? From a Crowd-Sourced Compound Library to the First In Vivo Experiments” (JACS Au, 2022):
Several values for one entry are separate records, joined by “and”; a condition that tells them apart may be missing. Equal values may be shown once. Read-outs that look alike come from different tables or passages of the source. Starred links: 1 amine or outer side, 2 acyl side, 3 side chain; linkers in the order of their positions; H or OH if unused. Positions of bridges follow the written chain, without caps; N, C: chain ends. Non-standard residues stand in square brackets, D forms with d. Residues, ends and D or L forms follow the SMILES beside them. *: point of attachment. pTerphenylCO(4''-OnC5H11) = CCCCCOc1ccc(-c2ccc(-c3ccc(C(=O)*)cc3)cc2)cc1; Orn(4R-OH,5R-OH) = O=C([C@H](C[C@@H](O)[C@@H](O)N[*:3])N[*:1])[*:2]; hTyr(3S-OH,4S-OH) = N[C@H](C(=O)O)[C@H](O)[C@@H](O)c1ccc(O)cc1; Pro(3S-OH,4S-Me) = C[C@H]1CN[C@H](C(=O)O)[C@H]1O; Hyp = O=C(O)[C@@H]1C[C@@H](O)CN1

How the values were obtained:
Type in all cases: cell-based
[1] = system: Cryptococcus deuterogattii ATCC 32609 VGII; test: Antifungal MIC assay, extended panel; settings: Cryptococcus deuterogattii, ATCC32609, comparator antifungals
Description: (§1) For the fungal assays, both fungi (yeast) strains were cultured for 3 days on Yeast Extract-Peptone Dextrose (YPD; Becton Dickinson 242720) agar at 30 °C. A yeast suspension of 1 × 10^6 to 5 × 10^6 CFU/mL (as determined by OD530) was prepared from five colonies from the agar plates, subsequently diluted with Yeast Nitrogen Base media (YNB; Becton Dickinson 233520), and added to each well of the compound containing plates (384-well plates, NBS; Corning CLS3640), giving a final cell density of 2.5 × 10^3 CFU/mL and a total volume of 50 μL. Plates were covered and incubated at 35 °C for 36 h without shaking. […] MIC values were recorded as the lowest concentration at which the growth was inhibited by ≥80%, equivalent to ″optically clear-to-slightly hazy″ or MIC score of 0–1 as per CLSI guidelines M27 Reference Method for Broth Dilution Antifungal Susceptibility Testing of Yeasts. […] Fluconazole (Sigma F8929) was used as internal control on each plate for all strains. All compounds were tested as two technical replicates in two to four independent biological assays, n = 4–8 final data.

[2] = system: Candida tropicalis ATCC 750; test: Antifungal MIC assay, extended panel; settings: Candida tropicalis, ATCC750, comparator antifungals
Description: as §1

[3] = system: Cryptococcus deuterogattii CBS7750 VGII; Serotype B; test: Antifungal MIC assay, extended panel; settings: Cryptococcus deuterogattii, CBS7750, comparator antifungals
Description: as §1

[4] = system: Candida glabrata ATCC 90030 NCCLS 84; test: Antifungal MIC assay, extended panel; settings: Nakaseomyces glabratus, ATCC90030, comparator antifungals
Description: as §1

[5] = system: Cryptococcus neoformans H99 ATCC 208821 type strain; test: Antifungal MIC assay; settings: Cryptococcus neoformans
Description: as §1

[6] = system: Candida auris CBS12373 KCTC 17810; test: Antifungal MIC assay, extended panel; settings: Candidozyma auris, comparator antifungals, read-out: MIC* Candida auris CBS12373
Description: as §1, with “values were recorded as the lowest concentration at which the growth was inhibited by ≥80%, equivalent to ″optically clear-to-slightly hazy″ or MIC score of 0–1 as per CLSI guidelines M27” left out

[7] = system: Candida auris CBS10913 JCM 15448; test: Antifungal MIC assay, extended panel; settings: Candidozyma auris, comparator antifungals, read-out: MIC* Candida auris CBS10913
Description: as §1, with “values were recorded as the lowest concentration at which the growth was inhibited by ≥80%, equivalent to ″optically clear-to-slightly hazy″ or MIC score of 0–1 as per CLSI guidelines M27” left out

[8] = system: Candida albicans ATCC 90028 NCCLS11; test: Antifungal MIC assay; settings: Candida albicans, ATCC90028, comparator antifungals, read-out: MIC* Candida albicans ATCC 90028
Description: as §1, with “[…],” for “MIC values were recorded as the lowest concentration at which the growth was inhibited by ≥80%,”

[9] = ≥80% inhibition, converted with MW of Table S12
[10] = ATCC208821, comparator antifungals, MIC = ≥80% inhibition, read-out: MIC* Cryptococcus neoformans ATCC 208821
[11] = ATCC208821, comparator antifungals, ≥80% inhibition, converted with MW of Table S12, read-out: MIC* Cryptococcus neoformans ATCC 208821

## CCCCCOc1ccc(-c2ccc(-c3ccc(C(=O)N[C@H]4C[C@@H](O)[C@@H](O)NC(=O)[C@@H]5[C@@H](O)[C@@H](C)CN5C(=O)[C@H]([C@@H](C)O)NC(=O)[C@H]([C@H](O)[C@@H](O)c5ccc(O)cc5)NC(=O)[C@@H]5C[C@@H](O)CN5C(=O)[C@H]([C@@H](C)O)NC4=O)cc3)cc2)cc1 [Anidulafungin, reference compound] ({pTerphenylCO(4''-OnC5H11)}-[Orn(4R-OH,5R-OH)]T[Hyp][hTyr(3S-OH,4S-OH)]T[Pro(3S-OH,4S-Me)]; lactam 1-C)
[1]; MIC = ≥80% inhibition
  MIC: 0.003 to 0.25 µg/mL
[1]; [9]
  MIC: 0.003 to 0.219 µM
[2]; MIC = ≥80% inhibition
  MIC: 0.004 to 0.008 µg/mL
[2]; [9]
  MIC: 0.003 to 0.007 µM
[3]; MIC = ≥80% inhibition
  MIC: 0.06 to 0.25 µg/mL
[3]; [9]
  MIC: 0.055 to 0.219 µM
[4]; MIC = ≥80% inhibition
  MIC: 0.008 µg/mL
[4]; [9]
  MIC: 0.007 µM
[5]; ATCC208821, read-out: MIC* Cryptococcus neoformans ATCC 208821
  MIC: 0.016 µg/mL to 0.125 µg/mL and 0.014 µM to 0.11 µM
[6]; MIC = ≥80% inhibition
  MIC: 0.25 µg/mL
[6]; [9]
  MIC: 0.219 µM
[7]; MIC = ≥80% inhibition
  MIC: 0.031 to 0.125 µg/mL
[7]; [9]
  MIC: 0.027 to 0.11 µM
[8]; MIC = ≥80% inhibition
  MIC: 0.031 to 0.125 µg/mL
[8]; [9]
  MIC: 0.027 to 0.11 µM

## CC[C@H](C)C[C@H](C)CCCCCCCCC(=O)N[C@H]1C[C@@H](O)[C@@H](NCCN)NC(=O)[C@@H]2[C@@H](O)CCN2C(=O)[C@H]([C@H](O)CCN)NC(=O)[C@H]([C@H](O)[C@@H](O)c2ccc(O)cc2)NC(=O)[C@@H]2C[C@@H](O)CN2C(=O)[C@H]([C@@H](C)O)NC1=O [Caspofungin, reference compound]
[1]; MIC = ≥80% inhibition
  MIC: 0.1 to 0.63 µg/mL
[2]; MIC = ≥80% inhibition
  MIC: 1.56 µg/mL
[2]; [9]
  MIC: 1.43 µM
[3]; MIC = ≥80% inhibition
  MIC: 0.06 to 0.1 µg/mL
[3]; [9]
  MIC: 0.029 to 0.089 µM
[4]; MIC = ≥80% inhibition
  MIC: 6.25 to 12.5 µg/mL
[4]; [9]
  MIC: 5.72 to 11.4 µM
[5]; [10]
  MIC: 0.098 to 1.56 µg/mL
[5]; [11]
  MIC: 0.089 to 1.43 µM
[6]; MIC = ≥80% inhibition
  MIC: 12.5 µg/mL
[6]; [9]
  MIC: 11.4 µM
[7]; MIC = ≥80% inhibition
  MIC: 6.25 µg/mL
[7]; [9]
  MIC: 5.72 µM
[8]; MIC = ≥80% inhibition
  MIC: 0.391 to 1.56 µg/mL
[8]; [9]
  MIC: 0.357 to 1.43 µM

## C[C@@H]1[C@H](O)[C@@H](C)/C=C/C=C/C=C/C=C/C=C/C=C/C=C/[C@H](O[C@@H]2O[C@H](C)[C@@H](O)[C@H](N)[C@@H]2O)C[C@@H]2O[C@](O)(C[C@@H](O)C[C@@H](O)[C@H](O)CC[C@@H](O)C[C@@H](O)CC(=O)O[C@H]1C)C[C@H](O)[C@H]2C(=O)O [Amphotericin B, reference compound]
[1]; MIC = ≥80% inhibition
  MIC: 4 to 16 µg/mL
[1]; [9]
  MIC: 6.13 to 24.5 µM
[2]; MIC = ≥80% inhibition
  MIC: 2 to 4 µg/mL
[2]; [9]
  MIC: 3.01 to 6.13 µM
[3]; MIC = ≥80% inhibition
  MIC: 1 to 8 µg/mL
[3]; [9]
  MIC: 1.53 to 12.3 µM
[4]; MIC = ≥80% inhibition
  MIC: ≥ 64 µg/mL
[4]; [9]
  MIC: ≥ 98.2 µM
[5]; [10]
  MIC: 2 to 8 µg/mL
[5]; [11]
  MIC: 3.01 to 12.3 µM
[6]; MIC = ≥80% inhibition
  MIC: > 128 µg/mL
[6]; [9]
  MIC: ≥ 196 µM
[7]; MIC = ≥80% inhibition
  MIC: 16 µg/mL
[7]; [9]
  MIC: 24.5 µM
[8]; MIC = ≥80% inhibition
  MIC: 0.125 to 1 µg/mL
[8]; [9]
  MIC: 0.192 to 1.53 µM

## CCC(C)n1ncn(-c2ccc(N3CCN(c4ccc(OCC5COC(Cn6cncn6)(c6ccc(Cl)cc6Cl)O5)cc4)CC3)cc2)c1=O (stereo not shown) [Itraconazole, reference compound]
[1]; MIC = ≥80% inhibition
  MIC: 2 to 8 µg/mL
[1]; [9]
  MIC: 2.83 to 11.3 µM
[2]; MIC = ≥80% inhibition
  MIC: 2 µg/mL
[2]; [9]
  MIC: 2.83 µM
[3]; MIC = ≥80% inhibition
  MIC: 2 to 4 µg/mL
[3]; [9]
  MIC: 2.83 to 5.67 µM
[4]; MIC = ≥80% inhibition
  MIC: 32 µg/mL
[4]; [9]
  MIC: 45 µM
[5]; [10]
  MIC: 1 to 2 µg/mL
[5]; [11]
  MIC: 1.42 to 2.83 µM
[6]; MIC = ≥80% inhibition
  MIC: 2 µg/mL
[6]; [9]
  MIC: 2.83 µM
[7]; MIC = ≥80% inhibition
  MIC: 0.063 µg/mL
[7]; [9]
  MIC: 0.089 µM
[8]; MIC = ≥80% inhibition
  MIC: 0.062 to 0.25 µg/mL
[8]; [9]
  MIC: 0.089 to 0.354 µM

## Nc1nc(=O)[nH]cc1F [5-Fluorocytosine, reference compound]
[1]; MIC = ≥80% inhibition
  MIC: 0.002 to 0.25 µg/mL
[1]; [9]
  MIC: 0.021 to 2.75 µM
[2]; MIC = ≥80% inhibition
  MIC: 0.001 to 0.002 µg/mL
[2]; [9]
  MIC: 0.012 to 0.021 µM
[3]; MIC = ≥80% inhibition
  MIC: 0.06 to 0.25 µg/mL
[3]; [9]
  MIC: 0.686 to 2.75 µM
[4]; MIC = ≥80% inhibition
  MIC: > 32 µg/mL
[4]; [9]
  MIC: > 351 µM
[5]; [10]
  MIC: 0.001 to 0.016 µg/mL
[5]; [11]
  MIC: 0.0107 to 0.172 µM
[6]; MIC = ≥80% inhibition
  MIC: ≤ 0.002 µg/mL
[6]; [9]
  MIC: ≤ 0.021 µM
[7]; MIC = ≥80% inhibition
  MIC: ≤ 0.002 µg/mL
[7]; [9]
  MIC: ≤ 0.021 µM
[8]; MIC = ≥80% inhibition
  MIC: ≤ 0.001 µg/mL
[8]; [9]
  MIC: ≤ 0.012 µM

## CC[C@@H]([C@H](C)O)n1ncn(-c2ccc(N3CCN(c4ccc(OC[C@@H]5CO[C@@](Cn6cncn6)(c6ccc(F)cc6F)C5)cc4)CC3)cc2)c1=O [Posaconazole, reference compound]
[1]; MIC = ≥80% inhibition
  MIC: 0.015 to 0.25 µg/mL
[1]; [9]
  MIC: 0.032 to 0.506 µM
[2]; MIC = ≥80% inhibition
  MIC: 0.125 µg/mL
[2]; [9]
  MIC: 0.253 µM
[3]; MIC = ≥80% inhibition
  MIC: 0.06 to 0.125 µg/mL
[3]; [9]
  MIC: 0.126 to 0.253 µM
[4]; MIC = ≥80% inhibition
  MIC: 2 µg/mL
[4]; [9]
  MIC: 4.04 µM
[5]; [10]
  MIC: 0.016 to 0.125 µg/mL
[5]; [11]
  MIC: 0.032 to 0.253 µM
[6]; MIC = ≥80% inhibition
  MIC: 2 µg/mL
[6]; [9]
  MIC: 4.04 µM
[7]; MIC = ≥80% inhibition
  MIC: 0.031 to 0.063 µg/mL
[7]; [9]
  MIC: 0.063 to 0.126 µM
[8]; MIC = ≥80% inhibition
  MIC: 0.001 to 0.031 µg/mL
[8]; [9]
  MIC: 0.002 to 0.063 µM
